Assay results from patent publication US7947718B2, “Isoxazole compounds as histamine H3 modulators” (Janssen Pharmaceutica NV, priority 2004, dated 2011).

molecular target: T1, human histamine H3 receptor (Homo sapiens, UniProt Q9Y5N1); experiment: [3H]-N-Methylhistamine binding; conditions: membranes of H3 receptor-expressing SK-N-MC cells; 0.8 nM [3H]-N-methylhistamine, 60 min at 25° C.
T1 construct: expressed in transfected cells; membranes were used
Experimental: Cells were grown to about 70% to 80% confluence and removed from the plate with trypsin and pelleted in a clinical centrifuge. […] One μg supercoiled H3 receptor cDNA was added to the cells and mixed gently. The voltage for the electroporation was set at 0.25 kV and the capacitance was set at 960 μF. After electroporation the cells were diluted with 10 mL of complete media and were plated onto four 10 cm dishes at the following ratios: 1:20, 1:10, 1:5, and 1:2. […] Colonies that survived selection were grown and tested. SK-N-MC cells were used because they give efficient coupling for inhibition of adenylate cyclase. The clones that gave the most robust inhibition of adenylate cyclase in response to histamine were used for further study.
Cell pellets from histamine H3 receptor-expressing SK-N-MC cells were homogenized in 50 mM TrisHCl/0.5 mM EDTA. Supernatants from an 800 g spin were collected and were recentrifuged at 30,000 g for 30 min. Pellets were re-homogenized in 50 mM Tris/5 mM EDTA (pH 7.4). Membranes were incubated with 0.8 nM [^3H]-N-methylhistamine plus/minus test compounds for 60 min at 25° C. and were harvested by rapid filtration over GF/C glass fiber filters (pretreated with 0.3% polyethylenimine) followed by four washes with buffer. Filters were added to 5 mL of scintillation cocktail, and the signal was then counted on a liquid scintillation counter.

T1 sequence (Q9Y5N1 whole entry): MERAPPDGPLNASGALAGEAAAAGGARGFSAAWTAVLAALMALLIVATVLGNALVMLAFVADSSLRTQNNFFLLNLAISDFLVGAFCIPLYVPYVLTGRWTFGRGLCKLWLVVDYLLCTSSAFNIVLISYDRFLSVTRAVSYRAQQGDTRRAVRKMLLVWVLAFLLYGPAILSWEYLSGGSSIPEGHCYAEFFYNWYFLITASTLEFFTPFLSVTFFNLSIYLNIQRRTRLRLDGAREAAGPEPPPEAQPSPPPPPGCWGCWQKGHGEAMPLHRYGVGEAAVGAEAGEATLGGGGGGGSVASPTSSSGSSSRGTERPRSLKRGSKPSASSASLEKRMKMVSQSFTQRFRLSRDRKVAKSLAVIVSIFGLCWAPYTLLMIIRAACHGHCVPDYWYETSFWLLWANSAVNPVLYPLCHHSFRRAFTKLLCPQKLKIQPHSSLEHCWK

Structure (SMILES)	Ki
C(#Cc1ccc(CN2CCCCC2)cn1)CCN1CCCCC1 [Example 8, 2-(4-Piperidin-1-yl-but-1-ynyl)-5-piperidin-1-ylmethyl-pyridine]	5 nM
CC(C)N1CCN(C(=O)c2ccc(NCCN3CCOCC3)nc2)CC1 [Example 10, (4-Isopropyl-piperazin-1-yl)-[6-(2-morpholin-4-yl-ethylamino)-pyridin-3-yl]-methanone]	14 nM
CC(C)N1CCN(C(=O)c2ccc(NCCc3ccccn3)nc2)CC1 [Example 11, (4-Isopropyl-piperazin-1-yl)-[6-(2-pyridin-2-yl-ethylamino)-pyridin-3-yl]-methanone]	84 nM
CCOC(=O)N1CCN(c2ccc(C(=O)N3CCN(C(C)C)CC3)cn2)CC1 [Example 14, 4-[5-(4-Isopropyl-piperazine-1-carbonyl)-pyridin-2-yl]-piperazine-1-carboxylic acid ethyl ester]	79 nM
CC(C)N1CCN(C(=O)c2ccnc(NCCN3CCCCC3)c2)CC1 [Example 16, (4-Isopropyl-piperazin-1-yl)-[2-(2-piperidin-1-yl-ethylamino)-pyridin-4-yl]-methanone]	6 nM
CC(C)N1CCN(C(=O)c2cccnc2NCCN2CCCCC2)CC1 [Example 17, (4-Isopropyl-piperazin-1-yl)-[2-(2-piperidin-1-yl-ethylamino)-pyridin-3-yl]-methanone]	141 nM
C(#Cc1cncc(CN2CCOCC2)c1)CCN1CCCCC1 [Example 19, 4-[5-(4-Piperidin-1-yl-but-1-ynyl)-pyridin-3-ylmethyl]-morpholine]	15 nM
C(#Cc1cccc(CN2CCCCC2)n1)CCN1CCCCC1 [Example 20, 2-(4-Piperidin-1-yl-but-1-ynyl)-6-piperidin-1-ylmethyl-pyridine]	8 nM
C(#Cc1cccc(CN2CCOCC2)n1)CCN1CCCCC1 [Example 21, 4-[6-(4-Piperidin-1-yl-but-1-ynyl)-pyridin-2-ylmethyl]-morpholine]	38 nM
COCCNCc1cccc(C#CCCN2CCCCC2)n1 [Example 22, (2-Methoxy-ethyl)-[6-(4-piperidin-1-yl-but-1-ynyl)-pyridin-2-ylmethyl]-amine]	29 nM

The next compounds have a lower Ki than those just listed; values first:

Ki	Structure (SMILES)
4 nM	CC(C)N1CCN(C(=O)c2ccc(N3CCN(C(C)C)CC3)nc2)CC1 [Example 13, (4-Isopropyl-piperazin-1-yl)-[6-(4-isopropyl-piperazin-1-yl)-pyridin-3-yl]-methanone]
3 nM	CCN(CC)CCN(C)c1ccc(C(=O)N2CCN(C(C)C)CC2)cn1 [Example 12, {6-[(2-Diethylamino-ethyl)-methyl-amino]-pyridin-3-yl}-(4-isopropyl-piperazin-1-yl)-methanone]
3 nM	CC(C)N1CCN(C(=O)c2ccc(N3CCN(C)CC3)nc2)CC1 [Example 15, (4-Isopropyl-piperazin-1-yl)-[6-(4-methyl-piperazin-1-yl)-pyridin-3-yl]-methanone]
2 nM	CC(C)N1CCN(C(=O)c2ccc(NCCN3CCCCC3)nc2)CC1 [Example 9, (4-Isopropyl-piperazin-1-yl)-[6-(2-piperidin-1-yl-ethylamino)-pyridin-3-yl]-methanone]
2 nM	C(#Cc1cncc(CN2CCCCC2)c1)CCN1CCCCC1 [Example 18, 3-(4-Piperidin-1-yl-but-1-ynyl)-5-piperidin-1-ylmethyl-pyridine]
